The values below come from patent US6784198B1, “Arylmethyl-carbonylamino-thiazole derivatives and their use as antitumor agents” (Pharmacia Italia S.p.A., priority 1999, dated 2004).

Broadly, the melting point is the temperature of the solid-liquid transition. For `CC(=O)Nc1nc(CC(=O)Nc2ncc(C(C)C)s2)cs1` [2-[2-(acetylamino)-1,3-thiazol-4-yl]-N-(5-isopropyl-1,3-thiazol-2-yl)acetamide], the melting point was in the range of 174 to 176 °C.
